Data set [1] has as its target Activated CDC42 kinase 1 (Homo sapiens) (UniProt Q07912). Kind of data set: Inhibition of TNK2 (unknown origin) assessed as residual activity at 10 uM incubated for 1 hr by KinomeScan analysis relative to control.
In data set [2] the target is T1, Myosin light chain kinase family member 4 (Homo sapiens) (UniProt Q86YV6).
T1 sequence (whole entry): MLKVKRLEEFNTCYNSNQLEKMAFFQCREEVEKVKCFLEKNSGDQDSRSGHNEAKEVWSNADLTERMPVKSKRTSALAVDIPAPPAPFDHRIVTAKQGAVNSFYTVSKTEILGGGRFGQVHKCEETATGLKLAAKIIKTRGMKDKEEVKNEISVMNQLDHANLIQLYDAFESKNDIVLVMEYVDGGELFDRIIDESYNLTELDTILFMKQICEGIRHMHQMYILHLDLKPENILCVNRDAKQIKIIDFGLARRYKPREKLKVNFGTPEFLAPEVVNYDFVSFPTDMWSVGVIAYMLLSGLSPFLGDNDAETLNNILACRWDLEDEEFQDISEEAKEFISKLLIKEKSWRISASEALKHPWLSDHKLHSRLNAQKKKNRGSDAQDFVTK
Kind of data set: Inhibition of MYLK4 (unknown origin) assessed as residual activity at 10 uM incubated for 1 hr by KinomeScan analysis relative to control.

Data set [3] in a line: Cytotoxicity against HEK293 cells assessed as inhibition of cell growth incubated for 72 hrs by MTS assay. The format is toxicity, cell-based. The note with it: human. On the technique in general: Tetrazolium dyes change colour on reduction, which living cells bring about.
Data set [4] concerns the target T2, Vascular endothelial growth factor receptor 2 (Homo sapiens, UniProt P35968). Kind of data set: Inhibition of VEGFR2 phosphorylation in VEGF-induced HUVEC cells assessed as reduction in pVEGFR2 level at 20 uM incubated for 5 mins by Western blot analysis. The format is cell-based. A general note: In western blotting, separated proteins are transferred to a membrane and probed.

Another data set concerns HUVEC. Kind of data set: Antiangiogenic activity in HUVEC cells assessed as inhibition of VEGF-induced cell proliferation at 20 uM incubated for 48 hrs by MTT assay relative to control. The format is functional. The note with it: Homo sapiens, values are per cent of control.
The target in data set [5] is T2, Vascular endothelial growth factor receptor 2. Description: Inhibition of VEGFR2 (unknown origin) using poly[Glu:Tyr] (4:1) as substrate at 20 uM incubated for 45 mins by kinase-glo max reagent based luminescence analysis relative to control. (Kinase-Glo reads ATP consumption through a luciferase reaction.)
For data set [6], the target named is Mast/stem cell growth factor receptor Kit (Homo sapiens) (UniProt P10721). Description: Inhibition of c-KIT (unknown origin) assessed as residual activity at 10 uM incubated for 1 hr by KinomeScan analysis relative to control.
Sequence of Mast/stem cell growth factor receptor Kit (Homo sapiens) (P10721 whole entry): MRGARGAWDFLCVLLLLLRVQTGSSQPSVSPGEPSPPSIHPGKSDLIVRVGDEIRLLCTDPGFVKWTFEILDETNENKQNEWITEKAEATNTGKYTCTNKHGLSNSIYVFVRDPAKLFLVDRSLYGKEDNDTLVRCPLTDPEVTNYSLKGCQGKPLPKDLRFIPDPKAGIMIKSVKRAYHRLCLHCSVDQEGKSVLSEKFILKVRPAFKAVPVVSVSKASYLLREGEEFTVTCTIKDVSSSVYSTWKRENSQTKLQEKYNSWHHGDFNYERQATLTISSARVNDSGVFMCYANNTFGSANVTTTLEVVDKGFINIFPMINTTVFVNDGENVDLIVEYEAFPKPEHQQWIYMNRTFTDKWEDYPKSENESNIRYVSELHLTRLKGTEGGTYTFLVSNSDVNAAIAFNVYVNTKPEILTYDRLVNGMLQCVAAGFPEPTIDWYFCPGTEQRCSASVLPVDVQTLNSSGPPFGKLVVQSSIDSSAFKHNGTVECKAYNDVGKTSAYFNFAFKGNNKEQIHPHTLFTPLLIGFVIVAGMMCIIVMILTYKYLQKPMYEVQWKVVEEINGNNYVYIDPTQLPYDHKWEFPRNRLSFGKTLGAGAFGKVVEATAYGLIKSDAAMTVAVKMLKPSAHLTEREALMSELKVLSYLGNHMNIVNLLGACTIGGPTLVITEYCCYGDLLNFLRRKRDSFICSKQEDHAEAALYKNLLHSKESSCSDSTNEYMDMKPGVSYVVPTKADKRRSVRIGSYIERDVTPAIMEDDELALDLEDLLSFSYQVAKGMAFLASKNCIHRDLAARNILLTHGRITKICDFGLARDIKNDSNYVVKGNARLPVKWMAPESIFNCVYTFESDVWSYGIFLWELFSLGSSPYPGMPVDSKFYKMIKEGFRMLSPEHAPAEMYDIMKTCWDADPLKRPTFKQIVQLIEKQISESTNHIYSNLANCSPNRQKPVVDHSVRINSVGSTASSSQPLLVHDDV
Data set [7] has as its target T3, Serine/threonine-protein kinase D2 (Homo sapiens) (UniProt Q9BZL6).
T3 sequence (whole entry): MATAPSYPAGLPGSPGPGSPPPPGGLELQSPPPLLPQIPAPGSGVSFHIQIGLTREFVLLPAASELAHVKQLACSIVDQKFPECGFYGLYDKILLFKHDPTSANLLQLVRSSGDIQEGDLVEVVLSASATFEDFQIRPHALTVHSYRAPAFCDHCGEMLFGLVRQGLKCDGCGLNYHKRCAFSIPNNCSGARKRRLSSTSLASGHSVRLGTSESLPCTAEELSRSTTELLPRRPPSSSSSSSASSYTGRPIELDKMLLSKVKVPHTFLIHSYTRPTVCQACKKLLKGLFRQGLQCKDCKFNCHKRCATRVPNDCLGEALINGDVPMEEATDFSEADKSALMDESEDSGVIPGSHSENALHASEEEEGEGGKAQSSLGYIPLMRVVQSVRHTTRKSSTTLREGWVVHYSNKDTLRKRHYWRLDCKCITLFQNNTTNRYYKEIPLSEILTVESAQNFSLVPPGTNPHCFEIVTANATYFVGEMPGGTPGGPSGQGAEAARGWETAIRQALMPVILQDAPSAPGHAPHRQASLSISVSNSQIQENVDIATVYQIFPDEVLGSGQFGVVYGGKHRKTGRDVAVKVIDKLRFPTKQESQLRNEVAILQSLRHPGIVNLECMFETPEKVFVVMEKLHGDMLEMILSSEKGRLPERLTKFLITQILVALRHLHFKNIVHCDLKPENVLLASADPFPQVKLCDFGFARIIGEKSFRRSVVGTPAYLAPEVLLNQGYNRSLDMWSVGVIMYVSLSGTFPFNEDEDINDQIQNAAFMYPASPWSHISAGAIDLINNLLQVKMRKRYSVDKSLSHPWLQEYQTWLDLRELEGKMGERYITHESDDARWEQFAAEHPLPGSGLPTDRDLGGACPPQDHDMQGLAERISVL
Description: Inhibition of PRKD2 (unknown origin) assessed as residual activity at 10 uM incubated for 1 hr by KinomeScan analysis relative to control.

The next data set concerns MDA-MB-468. Description: Cytotoxicity against human MDA-MB-468 cells assessed as inhibition of cell growth incubated for 72 hrs by MTS assay. The format is functional, cell-based. The note with it: MDA-MB-468, 72 h.
The nature of data set [8]: Selectivity index, ratio of IC50 for cytotoxicity against HEK293 cells to IC50 for cytotoxicity against human MDA-MB-468 cells. The format is toxicity, cell-based. The note with it: HEK293 cells versus MDA-MB-468 cells, read-out: Ratio IC50.
Data set [9] concerns the target T2, Vascular endothelial growth factor receptor 2. Description: Inhibition of VEGFR2 (unknown origin) using poly[Glu:Tyr] (4:1) as substrate incubated for 45 mins by kinase-glo max reagent based luminescence analysis.
A short description of data set [10]: Cytotoxicity against HEK293 cells assessed as inhibition of cell growth at 50 uM incubated for 72 hrs by MTS assay relative to control. The format is toxicity, cell-based. The note with it: human.

Molecules are shown by their SMILES. Calls of active or inactive are those of the source. No cut-off for these calls is given here.

T2 sequence (P35968 whole entry): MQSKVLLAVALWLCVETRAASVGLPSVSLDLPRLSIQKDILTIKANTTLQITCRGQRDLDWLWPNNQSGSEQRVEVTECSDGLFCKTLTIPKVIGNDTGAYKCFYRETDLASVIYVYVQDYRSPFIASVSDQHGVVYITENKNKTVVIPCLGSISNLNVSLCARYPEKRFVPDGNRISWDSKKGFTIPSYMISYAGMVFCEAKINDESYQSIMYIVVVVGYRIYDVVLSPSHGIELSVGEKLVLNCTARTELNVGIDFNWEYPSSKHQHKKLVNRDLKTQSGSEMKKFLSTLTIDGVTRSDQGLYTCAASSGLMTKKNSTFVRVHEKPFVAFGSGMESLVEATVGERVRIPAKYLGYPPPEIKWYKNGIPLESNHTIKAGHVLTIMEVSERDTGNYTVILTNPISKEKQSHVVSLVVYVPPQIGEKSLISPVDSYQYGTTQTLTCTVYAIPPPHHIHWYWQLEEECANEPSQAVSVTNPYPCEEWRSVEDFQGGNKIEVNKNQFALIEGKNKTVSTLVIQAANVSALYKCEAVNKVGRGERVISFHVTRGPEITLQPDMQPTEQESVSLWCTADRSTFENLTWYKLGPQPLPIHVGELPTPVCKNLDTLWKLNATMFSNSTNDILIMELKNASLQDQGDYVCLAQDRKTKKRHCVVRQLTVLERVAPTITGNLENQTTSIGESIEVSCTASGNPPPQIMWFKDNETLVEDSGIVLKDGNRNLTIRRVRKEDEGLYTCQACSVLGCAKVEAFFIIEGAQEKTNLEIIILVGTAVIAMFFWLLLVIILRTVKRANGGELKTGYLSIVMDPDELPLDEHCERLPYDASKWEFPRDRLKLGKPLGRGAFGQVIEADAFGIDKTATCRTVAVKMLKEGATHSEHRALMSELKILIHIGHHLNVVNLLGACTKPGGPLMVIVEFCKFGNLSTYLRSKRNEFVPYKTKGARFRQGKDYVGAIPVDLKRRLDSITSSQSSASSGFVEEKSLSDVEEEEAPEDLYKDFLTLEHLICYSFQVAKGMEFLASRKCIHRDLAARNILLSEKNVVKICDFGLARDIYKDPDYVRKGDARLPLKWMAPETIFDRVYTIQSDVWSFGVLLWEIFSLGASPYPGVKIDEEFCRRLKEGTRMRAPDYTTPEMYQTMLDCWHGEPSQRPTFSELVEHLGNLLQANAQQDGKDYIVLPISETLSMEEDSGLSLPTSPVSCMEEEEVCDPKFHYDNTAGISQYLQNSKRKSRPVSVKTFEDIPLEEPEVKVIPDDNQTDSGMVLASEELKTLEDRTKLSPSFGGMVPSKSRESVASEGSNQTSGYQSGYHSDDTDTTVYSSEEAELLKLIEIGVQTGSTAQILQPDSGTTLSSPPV
Sequence of Activated CDC42 kinase 1 (Homo sapiens) (Q07912 whole entry, looked up): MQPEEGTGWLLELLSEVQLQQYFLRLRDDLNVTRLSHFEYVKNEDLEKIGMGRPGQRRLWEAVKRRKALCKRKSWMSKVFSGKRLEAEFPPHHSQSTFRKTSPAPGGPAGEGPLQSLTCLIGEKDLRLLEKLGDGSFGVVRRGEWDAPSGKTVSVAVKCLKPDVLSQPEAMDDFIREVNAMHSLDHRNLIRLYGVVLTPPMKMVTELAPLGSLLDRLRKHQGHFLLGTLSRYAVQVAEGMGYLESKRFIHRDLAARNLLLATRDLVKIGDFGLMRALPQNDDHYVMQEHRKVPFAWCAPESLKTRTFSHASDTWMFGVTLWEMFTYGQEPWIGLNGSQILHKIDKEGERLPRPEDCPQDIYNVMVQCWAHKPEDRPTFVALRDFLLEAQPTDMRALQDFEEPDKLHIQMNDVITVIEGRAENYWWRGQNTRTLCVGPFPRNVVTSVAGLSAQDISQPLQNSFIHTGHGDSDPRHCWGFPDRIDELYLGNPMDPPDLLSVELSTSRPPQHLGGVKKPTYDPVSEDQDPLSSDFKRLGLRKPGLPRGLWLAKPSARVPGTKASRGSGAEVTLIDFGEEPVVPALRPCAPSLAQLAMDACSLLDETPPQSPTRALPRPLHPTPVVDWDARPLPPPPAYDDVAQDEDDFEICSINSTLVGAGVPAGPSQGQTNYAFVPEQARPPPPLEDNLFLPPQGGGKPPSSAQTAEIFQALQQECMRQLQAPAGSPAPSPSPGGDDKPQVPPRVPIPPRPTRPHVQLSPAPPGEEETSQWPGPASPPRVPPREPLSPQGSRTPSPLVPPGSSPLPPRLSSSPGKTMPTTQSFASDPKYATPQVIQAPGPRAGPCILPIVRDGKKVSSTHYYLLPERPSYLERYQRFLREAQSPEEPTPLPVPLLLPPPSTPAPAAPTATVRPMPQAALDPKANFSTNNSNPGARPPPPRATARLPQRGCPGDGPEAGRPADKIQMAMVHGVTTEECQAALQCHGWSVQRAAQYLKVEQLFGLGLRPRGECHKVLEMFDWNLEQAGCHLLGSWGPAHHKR

The term IC50 denotes the point on the concentration scale where inhibition reaches its midpoint. Usually inhibition stands for the relative decrease from the control value, in per cent. Take `O=S1(=O)N=C(NCc2ccc(OC(F)(F)F)cc2)Nc2cc(Cl)ccc21`: the Activity is 0.1% in data set [1], 33% in data set [2], 32% in data set [6] and 8% in data set [7]. The IC50 at 72 h in data set [3] stood at 77.2 µM. Moreover, in data set [4], the inhibition result was “Active”. Further, the growth, % of control at 20 µM in the data set on HUVEC was determined as 199%. Also, the inhibition in data set [5] came to 33%. Moreover, the IC50 in the data set with MDA-MB-468 stood at 48 µM; in data set [9] it was 140 µM. Further, the selectivity ratio in data set [8] came to 1.6.

For `CNC(=O)c1cc(Oc2ccc(NC(=O)Nc3ccc(Cl)c(C(F)(F)F)c3)cc2)ccn1` [SORAFENIB], the IC50 at 72 h in data set [3] is 2.95 µM. The IC50 in the data set on MDA-MB-468 was found to be 7.31 µM. Also, the inhibition at 72 h, 50 µM in [10] came to 99%.

The values above are taken from ChEMBL document CHEMBL5126581, “Chlorinated benzothiadiazines inhibit angiogenesis through suppression of VEGFR2 phosphorylation” (Bioorg Med Chem, 2022).
